“Also recorded” adds a separate entry of the source. *1 amine or outer side, *2 acyl side, *3 side chain or, on linkers, in order; H or OH if unused. Where a SMILES comes first, the peptide text is derived from it. Bridges are numbered along the chain shown (N, C = ends). Primed or numbered codes have the meaning given here. Where no end group is shown, it is not given here. [ ]: non-standard residue; d: D form. The star is where a group is joined. Tam = 6-carboxy tetramethylrhodamine, CN(C)c1ccc2c(-c3cc(C(=O)*)ccc3C(=O)[O-])c3ccc(N(C)C)cc3[o+]c2c1; X1 = CN(C)c1ccc2c(c1)Oc1cc(N(C)C)ccc1C21OC(=O)c2ccc(C(=O)*)cc21; EG(4) = polyethylene glycol with four ethylene glycol units; hCys = N[C@@H](CCS)C(=O)O; CH2 = C([*:1])[*:2]

For orientation: half-life means how long it takes for the measured level to halve. As a reminder, the EC50 is the midpoint of the concentration-response curve.

Data set [1] can be described thus: Investigation of plasma stability (Tam-labeled peptides, RP-HPLC). The conditions noted are these: Tam-modified peptides, 10^−5 M in human blood plasma, 37 °C; one-phase decay. Type of data set: in vitro ADME.
Method: Investigation of peptide stability in blood plasma was carried out as described previously [22]. Tam-labeled peptides were dissolved in human blood plasma at a concentration of 10^−5 M and incubated at 37 °C and 250 rpm. Samples taken at the respective time points were added to a solution of 0.1% SDS in ACN/EtOH (1:1). After incubation at −20 °C for 20 min, the supernatant was transferred to a new tube and incubated again at −20 °C for at least 3 h. […] Peaks were integrated, and the peak containing the intact peptide was normalized to the sample taken at t = 0 min (100%). Plasma half-life was determined using one-phase decay in Prism 5 (GraphPad, San Diego, CA, USA).
The target of data set [2] is T1, hCMKLR1 (Homo sapiens, UniProt Q99788).
T1 sequence (Q99788 1-373): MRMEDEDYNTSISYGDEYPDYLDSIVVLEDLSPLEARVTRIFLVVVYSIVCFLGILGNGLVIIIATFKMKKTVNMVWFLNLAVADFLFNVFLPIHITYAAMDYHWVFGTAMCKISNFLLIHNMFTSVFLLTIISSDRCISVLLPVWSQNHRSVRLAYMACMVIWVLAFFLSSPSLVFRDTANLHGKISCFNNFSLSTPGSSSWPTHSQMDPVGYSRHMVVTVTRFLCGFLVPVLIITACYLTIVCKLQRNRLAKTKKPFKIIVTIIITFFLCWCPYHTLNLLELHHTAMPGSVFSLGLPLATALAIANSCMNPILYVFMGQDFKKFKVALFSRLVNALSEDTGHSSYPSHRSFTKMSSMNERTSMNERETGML
Kind of data set: Calcium flux assay in COS-7 cells transfected with hCMKLR1_eYFP_GαΔ6qi4myr. On the technique in general: Calcium flux is commonly read through the fluorescence of an indicator in the cells.
Method: COS-7 cells were transfected in 75 cm^2 cell culture flasks with 12 µg of the hCMKLR1_eYFP_GαΔ6qi4myr_pV2 plasmid overnight using Metafectene Pro. Transfected cells were seeded in 96 well plates (100 µL cell suspension in DMEM + 10%FBS/well) and incubated overnight. […] All experiments were performed in triplicates, each experiment was repeated at least twice. Nonlinear regression was calculated using GraphPad Prism 5.

Data set [3] concerns untransfected HEK293 cells. Kind of data set: Resazurin-based cell viability assay, untransfected HEK293. The following applies: HEK293 cells devoid of CMKLR1, 72 h. Here is the method:
(§1) HEK293 cells stably transfected with CMKLR1-eYFP, empty HEK293 cells (15,000 cells in 100 µL suspension/well), or HMEC-1 cells (5000 cells in 100 µL suspension/well) in their respective cell culture media were seeded in 96 well plates (coated with poly D-lysine for HEK cells) and incubated at standard conditions overnight. Afterward, cells were incubated with peptides or MTX dissolved in cell culture media, and a medium without peptides was used as a control. […] Ethanol or media was removed and a 50 µL resazurin-based in vitro toxicology assay kit (Sigma-Aldrich, St. Lous, MO, USA) in cell culture media (1:10) was added to each well. After 1 h incubation time, the conversion of the resazurin was detected by measuring the fluorescence intensity at λem = 590 nm. All experiments were performed in duplicates and each experiment was repeated at least three times. Nonlinear regression was calculated using GraphPad Prism 5, curves were normalized to untreated and ethanol-treated cells.

The subject of data set [4] is HEK293 cells stably transfected with CMKLR1-eYFP. The data set is described as follows: Resazurin-based cell viability assay, HEK293-CMKLR1. The conditions noted are these: HEK293-CMKLR1. Here is the method:
as §1
On the technique in general: Resazurin is reduced to fluorescent resorufin, in cell work by metabolically active cells.

A short description of data set [5]: human blood plasma. The conditions noted are these: 37 °C, up to 24 h.
The test system of data set [6] is HEK293 cells stably transfected with CMKLR1-eYFP. Kind of data set: Quantification of peptide uptake using a High Content Imager. Type of data set: cell-based. The following applies: 1 µM Tam-labeled peptide, up to 1 h. Here is the method:
Cells were stimulated with 1 µM of the respective, Tam-labeled peptide for the specified periods, followed by washing with acidic wash (50 mM glycine, 100 mM NaCl, pH 3) in HBSS. Microscopy was carried out in OptiMEM using an ImageXpress Micro Confocal High-Content Imaging System (Molecular Devices, San José, CA, USA), using the appropriate filters for the respective fluorophores (Table 1). The fluorescence intensity per cell was automatically analyzed for each well by a module detecting the nuclei (5–30 µm in diameter and 100 gray levels above background) and the granules by Tam-peptide fluorescence (2–5 µm in diameter, 70 gray levels above background).

For data set [7], the target named is chemokine-like receptor 1 fused to eYFP (hCMKLR1-eYFP) (human) (UniProt Q99788).
The target is the same in data set [8]. The source holds these as a separate data set.
[9] abbreviates: EC50, Ca^2+ flux, normalized to chemerin-9 curve.

As to `CN(C)c1ccc2c(c1)Oc1cc(N(C)C)ccc1C21OC(=O)c2ccc(C(=O)N[C@@H](Cc3ccc(O)cc3)C(=O)N[C@@H](Cc3ccccc3)C(=O)N3CCC[C@H]3C(=O)N[C@@H]3CSSC[C@@H](C(=O)N[C@@H](Cc4ccccc4)C(=O)N[C@@H](CO)C(=O)O)NC(=O)[C@H](Cc4ccccc4)NC(=O)[C@H](CCC(N)=O)NC3=O)cc21` [Compound 2T, Tam-YFP(cQFCFS)] (X1-YFP[dC]QFCFS-OH; disulfide 4-7), the half-life in data set [1] was 45 min.

On to `CN(C)c1ccc2c(c1)Oc1cc(N(C)C)ccc1C21OC(=O)c2ccc(C(=O)N[C@@H](Cc3ccc(O)cc3)C(=O)N[C@@H](Cc3ccccc3)C(=O)N3CCC[C@H]3C(=O)N[C@@H]3CSCSC[C@@H](C(=O)N[C@@H](Cc4ccccc4)C(=O)N[C@@H](CO)C(=O)O)NC(=O)[C@H](Cc4ccccc4)NC(=O)[C@H](CCC(N)=O)NC3=O)cc21` [Compound 3T, Tam-YFP(c(CH2)QFCFS)] (X1-YFP[dC]QFCFS-OH; linker 4-7 via CH2), for which, in data set [1], the half-life was 18 min.

For the compound `C[C@@H]1NC(=O)[C@H](Cc2ccccc2)NC(=O)[C@H](CCC(N)=O)NC(=O)[C@H](NC(=O)[C@@H]2CCCN2C(=O)[C@H](Cc2ccccc2)NC(=O)[C@@H](N)Cc2ccc(O)cc2)CSSC[C@@H](C(=O)O)NC(=O)[C@H](Cc2ccccc2)NC1=O` [Compound 4, YFP(cQFAFC)] (H-YFP[dC]QFAFC-OH; disulfide 4-9), in data set [2] (pEC50 ± SEM, Ca^2+ flux), the EC50 is 0.0643 µM.

As to `C[C@@H]1NC(=O)[C@H](Cc2ccccc2)NC(=O)[C@H](CCC(N)=O)NC(=O)[C@H](NC(=O)[C@@H]2CCCN2C(=O)[C@H](Cc2ccccc2)NC(=O)[C@H](Cc2ccc(O)cc2)NC(=O)c2ccc3c(c2)C2(OC3=O)c3ccc(N(C)C)cc3Oc3cc(N(C)C)ccc32)CSSC[C@@H](C(=O)O)NC(=O)[C@H](Cc2ccccc2)NC1=O` [Compound 4T, Tam-YFP(cQFAFC)] (X1-YFP[dC]QFAFC-OH; disulfide 4-9), in data set [1], the half-life was above 1440 min.

As to `C[C@@H]1NC(=O)[C@H](Cc2ccccc2)NC(=O)[C@H](CCC(N)=O)NC(=O)[C@H](NC(=O)[C@@H]2CCCN2C(=O)[C@H](Cc2ccccc2)NC(=O)[C@@H](N)Cc2ccc(O)cc2)CSCSC[C@@H](C(=O)O)NC(=O)[C@H](Cc2ccccc2)NC1=O` [Compound 5, YFP(c(CH2)QFAFC)] (H-YFP[dC]QFAFC-OH; linker 4-9 via CH2), the EC50 is 0.013 µM in data set [2] (setting [9]) and 0.0129 µM in data set [2] (pEC50 ± SEM, Ca^2+ flux).

Compound `C[C@@H]1NC(=O)[C@H](Cc2ccccc2)NC(=O)[C@H](CCC(N)=O)NC(=O)[C@H](NC(=O)[C@@H]2CCCN2C(=O)[C@H](Cc2ccccc2)NC(=O)[C@H](Cc2ccc(O)cc2)NC(=O)c2ccc3c(c2)C2(OC3=O)c3ccc(N(C)C)cc3Oc3cc(N(C)C)ccc32)CSCSC[C@@H](C(=O)O)NC(=O)[C@H](Cc2ccccc2)NC1=O` [Compound 5T, Tam-YFP(c(CH2)QFAFC)] (X1-YFP[dC]QFAFC-OH; linker 4-9 via CH2) had a half-life in data set [1] above 1440 min.

Take `C[C@@H]1NC(=O)[C@H](Cc2ccccc2)NC(=O)[C@H](CCC(N)=O)NC(=O)[C@H](NC(=O)[C@@H]2CCCN2C(=O)[C@H](Cc2ccccc2)NC(=O)[C@@H](N)Cc2ccc(O)cc2)CSCSCC[C@@H](C(=O)O)NC(=O)[C@H](Cc2ccccc2)NC1=O` [Compound 6, YFP(c(CH2)QFAFX)] (H-YFP[dC]QFAF[hCys]-OH; linker 4-9 via CH2): the EC50 is 0.037 µM in data set [2] (setting [9]) and 0.0372 µM in data set [2] (pEC50 ± SEM, Ca^2+ flux).

On to `C[C@@H]1NC(=O)[C@H](Cc2ccccc2)NC(=O)[C@H](CCC(N)=O)NC(=O)[C@H](NC(=O)[C@@H]2CCCN2C(=O)[C@H](Cc2ccccc2)NC(=O)[C@H](Cc2ccc(O)cc2)NC(=O)c2ccc3c(c2)C2(OC3=O)c3ccc(N(C)C)cc3Oc3cc(N(C)C)ccc32)CSCSCC[C@@H](C(=O)O)NC(=O)[C@H](Cc2ccccc2)NC1=O` [Compound 6T, Tam-YFP(c(CH2)QFAFX)] (X1-YFP[dC]QFAF[hCys]-OH; linker 4-9 via CH2), for which, in data set [1], the half-life is above 1440 min.

In the case of `CN(C)c1ccc2c(c1)Oc1cc(N(C)C)ccc1C21OC(=O)c2ccc(C(=O)NCCCC[C@@H]3NC(=O)[C@H](Cc4ccccc4)NC(=O)[C@H](CCC(N)=O)NC(=O)[C@H](NC(=O)[C@@H]4CCCN4C(=O)[C@H](Cc4ccccc4)NC(=O)[C@@H](N)Cc4ccc(O)cc4)CSSC[C@@H](C(=O)O)NC(=O)[C@H](Cc4ccccc4)NC3=O)cc21` [Compound 7T, YFP(cQFK(Tam)FC)] (H-YFP[dC]QFK(X1)FC-OH; disulfide 4-9), in data set [1], the half-life was below 12 min.

`CN(C)c1ccc2c(c1)Oc1cc(N(C)C)ccc1C21OC(=O)c2ccc(C(=O)NCCCC[C@@H]3NC(=O)[C@H](Cc4ccccc4)NC(=O)[C@H](CCC(N)=O)NC(=O)[C@H](NC(=O)[C@@H]4CCCN4C(=O)[C@H](Cc4ccccc4)NC(=O)[C@H](N)Cc4ccc(O)cc4)CSSC[C@@H](C(=O)O)NC(=O)[C@H](Cc4ccccc4)NC3=O)cc21` [Compound 8T, yFP(cQFK(Tam)FC)] (H-[dY]FP[dC]QFK(X1)FC-OH; disulfide 4-9) had a half-life in data set [1] above 1440 min.

Regarding `C[C@@H]1NC(=O)[C@H](Cc2ccccc2)NC(=O)[C@H](CCC(N)=O)NC(=O)[C@H](NC(=O)[C@@H]2CCCN2C(=O)[C@H](Cc2ccccc2)NC(=O)[C@H](N)Cc2ccc(O)cc2)CSCSCC[C@@H](C(=O)O)NC(=O)[C@H](Cc2ccccc2)NC1=O` [Compound 10, yFP(c(CH2)QFAFX)] (H-[dY]FP[dC]QFAF[hCys]-OH; linker 4-9 via CH2), the EC50 was 0.028 µM in data set [2] (setting [9]) and 0.028 µM in data set [2] (pEC50 ± SEM, Ca^2+ flux).

Regarding Mtx-GFLGK(Ac)YFP(xQFAFC) [Compound 15], the “toxicity (in words)” value in data set [3] is on record as “exerted no toxicity; also recorded: not toxic at concentrations up to 10 µM”. In addition, the “increase in toxicity compared to MTX itself” value in data set [4] is recorded as “almost eightfold increase in toxicity”.

Take Tam-EG(4)-YFP(xQFAFC): the not cleaved result in data set [5] is given as “not degraded in blood plasma for at least 24 h; t1/2 >48 h”.

“Tam-EG(4)-YFPGQFAAS ({Tam-EG(4)}-YFPGQFAAS) [Compound 13T, alanine-substituted Tam-labeled linear peptide, negative control]”: the “intracellular accumulation of Tam-fluorescence over time” value in data set [6] is “did not accumulate in the cells”.

Turning to Tam-YFP(c(CH2)QFAFC), in data set [5], the not cleaved entry was “same stability for 24 h; t1/2 >24 h”.

For the compound Tam-YFP(c(CH2)QFAFX), the not cleaved result in data set [5] is listed as “same stability for 24 h; t1/2 >24 h”.

In the case of “Tam-YFP(cQFAFC) (X1-YFP[dC]QFAFC-OH; disulfide 4-9)”, the not cleaved entry in data set [5] was “remained completely intact for the course of the experiment (24 h); t1/2 >24 h”.

In data set [7], “methotrexate conjugate 15, Mtx-GFLGK(Ac)YFP(xQFAFC) (peptide)” showed a toxicity in a resazurin-based cell viability assay, HMEC-1 cells endogenously expressing CMKLR1, 72 h, IC50 of 2 µM. This compound had a toxicity in a resazurin-based cell viability assay, HEK293 cells stably transfected with CMKLR1-eYFP, 72 h, IC50 (no toxicity on HEK293 cells devoid of CMKLR1 up to 10 µM) in data set [8] of 0.061 µM.

Consider yFP(cQFK(Tam)FC), for which the not cleaved result in data set [5] is “fully stable in blood plasma for 24 h; t1/2 >24 h”.

For the origin of these results see paper PMC8345219 (Cancers, 2021).
